Data reported in the NIST ThermoML archive (doi:10.1016/j.fluid.2013.11.002).
± gives the expanded uncertainty stated by the source.

Columns and labels:
[1] = refractive index (Na D-line) (dimensionless); details: 101.33 kPa, Liquid, Standard Abbe refractometry
[2] = refractive index (Na D-line) (dimensionless); xn = mol fraction of the nth substance listed; details: 101 kPa, Liquid, Standard Abbe refractometry

Row | refractive index ([1]; 298.15 K) | refractive index ([1]; 303.15 K) | refractive index ([2]; 298.15 K, x1 = 0.01) | refractive index ([2]; 298.15 K, x1 = 0.02) | refractive index ([2]; 298.15 K, x1 = 0.03) | refractive index ([2]; 298.15 K, x1 = 0.04) | refractive index ([2]; 298.15 K, x1 = 0.05) | refractive index ([2]; 298.15 K, x1 = 0.06) | refractive index ([2]; 298.15 K, x1 = 1) | refractive index ([2]; 303.15 K, x1 = 0.01) | refractive index ([2]; 303.15 K, x1 = 0.02) | refractive index ([2]; 303.15 K, x1 = 0.03) | refractive index ([2]; 303.15 K, x1 = 0.04) | refractive index ([2]; 303.15 K, x1 = 0.05) | refractive index ([2]; 303.15 K, x1 = 0.06) | refractive index ([2]; 303.15 K, x1 = 1) | SMILES
1 | 1.3331 ± 0.0005 | 1.3326 ± 0.0005 | – | – | – | – | – | – | – | – | – | – | – | – | – | – | O [water]
2 | – | – | 1.3371 ± 0.0005 | 1.3409 ± 0.0005 | 1.3448 ± 0.0005 | 1.348 ± 0.0005 | 1.351 ± 0.0005 | 1.354 ± 0.0005 | 1.4061 ± 0.0006 | 1.3366 ± 0.0005 | 1.3401 ± 0.0005 | 1.3431 ± 0.0005 | 1.347 ± 0.0005 | 1.3496 ± 0.0005 | 1.3521 ± 0.0005 | 1.4041 ± 0.0006 | C1CCOC1 [tetrahydrofuran] + O
